Source: patent US6958156B2, “Isoflavone derivatives” (Vyrex Corporation, priority 2000, dated 2005)

Tests used:
[1] = Merck Index descriptions; cited from earlier work
[2] = Non-enzymatic hydrolysis of genistein esters in aqueous buffer (HPLC); assay type: physicochemical; conditions: phosphate-buffered saline (0.1 M), pH 7.4, 37°, 10 days
Source text: By way of example, and not of limitation, several embodiments of the inventive subject matter have been prepared and characterized. These examples all fall within the group of pro-compounds where at least one of R7, R6, R5 and R4′ is H2PO4—, and HOOC—(CH2)x-COO— where x=2, 3, or 4. These new phosphate esters and hemiesters are all water soluble and readily hydrolyzed. They are also stable. In aqueous solutions of the exemplified compounds, for example, hydrolysis occurs to the extent of less than 1% per day, when stored at pH 7.4 and 37° C. Dry formulations of the same compounds appear to be indefinitely stable.
HPLC analysis was conducted using a Partisil ODS-3 column (9.5×250 mm), with methanol as the mobile phase, and UV detection at 260 nm.
A solution of genistein-7-phosphate (2.5 mg) in 5 ml of phosphate-buffered saline (0.1 M) at pH 7.4 was incubated at 37° for 10 days.
A solution of genistein-7-hemisuccinate (2.5 mg) in 5 ml of phosphate-buffered saline (0.1 M) at pH 7.4 was incubated at 37° for 10 days.

[3] = Hydrolysis of genistein-7-phosphate to free genistein in human serum; assay type: in vitro ADME; conditions: 37° C.
Method: (§1) In each of these experiments, free genistein was extracted with a 1:1 mixture of ethyl acetate and hexane, then analyzed by HPLC under the conditions described in example 5.
a) In human serum (Sierra Biologicals) at 37° C., the half-life for hydrolysis to free genistein was about 5 hours.

[4] = target: alkaline phosphatase type XXIV (Homo sapiens, UniProt P05187); experiment: Hydrolysis by alkaline phosphatase type XXIV; assay type: biochemical; conditions: 37° C.
Method: as §1
e) In alkaline phosphatase type XXIV at 37° C., the initial rate of hydrolysis to free genistein was 0.05% per minute.

[5] = test system: alkaline phosphatase type VII-S; experiment: Hydrolysis by alkaline phosphatase type VII-S; assay type: biochemical, bovine; conditions: 37° C., 0.5 DEA units in 1.0 ml 0.1M glycine buffer pH 10.4, initial substrate 1.07 mM
Method: as §1
d) In alkaline phosphatase type VII-S at 37° C., the initial rate of hydrolysis to free genistein was 0.08% per minute.
This enzyme from bovine intestinal mucosa (Sigma cat no. P5521). 0.5 DEA units were dissolved in 1.0 ml of 0.1M glycine buffer pH 10.4, and the initial substrate concentration was 1.07 mM.

[6] = Hydrolysis of genistein-7-phosphate to free genistein in human blood; assay type: in vitro ADME; conditions: 37° C.
Method: as §1
b) In human blood (Sierra Biologicals) at 37° C., the half-life for hydrolysis to free genistein was about 6 hours.

[7] = Hydrolysis of genistein-7-phosphate to free genistein in rat blood; assay type: in vitro ADME; conditions: 37° C.
Method: as §1
c) In rat blood (Sierra Biologicals) at 37° C., the half-life for hydrolysis to free genistein was about 30 minutes.

alkaline phosphatase type XXIV, sequence (P05187 23-506): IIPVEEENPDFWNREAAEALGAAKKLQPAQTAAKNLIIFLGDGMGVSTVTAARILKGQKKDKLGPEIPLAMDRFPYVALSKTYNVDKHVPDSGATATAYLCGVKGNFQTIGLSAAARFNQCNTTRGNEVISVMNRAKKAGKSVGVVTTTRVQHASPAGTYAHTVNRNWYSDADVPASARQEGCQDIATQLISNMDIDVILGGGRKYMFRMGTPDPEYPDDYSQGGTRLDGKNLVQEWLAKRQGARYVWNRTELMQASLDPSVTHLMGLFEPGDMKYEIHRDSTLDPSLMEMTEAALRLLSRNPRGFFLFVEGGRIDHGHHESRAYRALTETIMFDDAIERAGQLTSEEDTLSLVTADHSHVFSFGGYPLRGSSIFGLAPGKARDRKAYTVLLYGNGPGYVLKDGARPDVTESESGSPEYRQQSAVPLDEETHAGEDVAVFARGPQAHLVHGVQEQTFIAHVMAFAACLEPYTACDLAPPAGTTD

Q: Which solubility in water [1] does the source give for `O=c1c(-c2ccc(O)cc2)coc2cc(O)cc(O)c12` [genistein] here?
A: very insoluble

Q: For `O=C(O)CCC(=O)Oc1cc(O)c2c(=O)c(-c3ccc(O)cc3)coc2c1` [genistein-7-hemisuccinate, Genistein-7-Hemisuccinate], which “conversion of the ester to free genistein” value [2] is on record?
A: about 4%

Q: For `O=c1c(-c2ccc(O)cc2)coc2cc(OP(=O)(O)O)cc(O)c12` [genistein-7-phosphate, Genistein-7-Phosphate], which half-life [3] is on record?
A: ~5 h

Q: What about the “initial rate of hydrolysis to free genistein” value [4] of the same compound?
A: 0.05 % per minute

Q: What about the “initial rate of hydrolysis to free genistein” value [5] of the same compound?
A: 0.08 % per minute

Q: And the half-life [6]?
A: ~6 h

Q: What about the “free genistein found by HPLC after incubation” value [2] of the same compound?
A: absence of free genistein

Q: What about the half-life [7] of the same compound?
A: ~0.5 h
